Laboratory results taken from patent US20230211030A1, “SYSTEMS AND METHODS FOR DISINFECTING PLUMBING FIXTURES AND ROOMS WITH PLUMBING FIXTURES” (priority 2021, published 2023).
Like-named read-outs stand apart in the source and are kept apart here.

Tested on: living organisms
Details: for ATP results, Under Rim, front: Before 74; for ATP results, Bowl Surface, left: Before 81; for ATP results, Bowl Surface, front: Before 91; for ATP results, Handle: Before 225; for ATP results, Tub Floor, right of drain: Before 6204
Source text: First, a control module or control system was constructed using a Raspberry Pi computer with 7 inch touchscreen monitor, Arduino microcontroller, two electronic breadboards, power supplies, and other electrical interfaces. A computer program written in Python receives inputs from the user via a convenient, single-screen input graphic on the touch screen. The graphic allows the user to independently specify the times that disinfecting fluid is dispensed to the sink, toilet, and shower by pressing up and down keys to increase or decrease minutes and seconds for each time. The time between disinfection cycles or cycle time is also input in the same manner. The graphic allows the chemical pump, 3-MD SC made by Little Giant Pump Co., to be enabled or disabled with the touch of a button. A button to start and stop the disinfecting cycle and also an output telling the user what part of the cycle is being run and how much time is left with that part of the cycle is also provided on the graphic interface screen. […] All chemical lines were made from half inch ID PVC reinforced tubing. Half inch stainless steel ball valves manufactured by U.S. Solid were installed in each branch to each plumbing fixture to control the on/off flow to each plumbing fixture, with the valve electronic actuators being wired to the control module and controlled by the program. The distribution structure conduit or tubing at the plumbing fixtures was customized to the shape and location of each plumbing fixture and was attached to each plumbing fixture in the following manner. […] A plexiglass backsplash was constructed about ten inches in height and 14 inches in width, plus partitions on either side protruding forward from the back panel at 45 degrees to help guide disinfecting fluid into the sink basin. The backsplash was held down to the countertop by a bead of silicone caulk, and the upper branch of tubing was mounted on this backsplash above the faucet. […] Holes were drilled in the tubing into which Quarter Circle Fan Micro Spray nozzles made by Mister Landscaper and available at Lowes were inserted and directed to either spray downward to coat the sink walls directly under the nozzles with disinfecting fluid or outward to spray disinfecting fluid into the sink basin on the opposite side of the sink. […] In this tubing, eleven Half Circle Fan Micro Spray nozzles were inserted with ten directed outwards toward the inner surfaces of the toilet bowl and one directed downwards so as to spray fluid onto a relatively large surface of the toilet bowl in the front of the toilet that sloped more gently and was not easily contacted by spray directed towards the sides. […] The program was configured to first apply disinfecting fluid to the sink for the time inputted for the sink, then the toilet, then the shower. When the cycle begins, the program first opens the ball valve to allow fluid to flow to a particular plumbing fixture, and then the pump is turned on and remains on until the end of the dispensing time, at which point the pump is turned off and the valve is closed. This sequence then repeats sequentially until all three plumbing fixtures have received the prescribed time of disinfecting fluid application.

[1] = Inside Toilet Bowl, After 3.5 Days, 40 secs each hour
[2] = Inside Toilet Bowl, After 6.5 days (40 secs each hour for 3.5 days then 30s each hour for another 3 days)

## hydrogen peroxide [1% H2O2]
Inside Toilet Bowl, After 3.5 Days, 40 secs each hour, Before 17
  ATP results, Bowl Surface, rear: 3 RLU
Inside Toilet Bowl, After 3.5 Days, 40 secs each hour, Before 26
  ATP results, Under Rim, right: 3 RLU
[1]
  ATP results, Under Rim, front: 15 RLU
  ATP results, Bowl Surface, left: 5 RLU
  ATP results, Bowl Surface, front: 21 RLU
Inside Toilet Bowl, After 3.5 Days, 40 secs each hour, Before 173
  ATP results, Bowl Surface (above water), right: 7 RLU
Inside Toilet Bowl, After 3.5 Days, 40 secs each hour, Before 258
  ATP results, Under Rim, left: 1 RLU
Inside Toilet Bowl, After 3.5 Days, 40 secs each hour, Before 3083
  ATP results, Under Rim, rear: 2 RLU
[2]
  ATP results, Under Rim, front: 2 RLU
  ATP results, Bowl Surface, left: 3 RLU
  ATP results, Bowl Surface, front: 5 RLU
Shower/Tub, After 3.5 Days, 40 secs each hour, disinfectant missed handle until adjustments were made
  ATP results, Handle: 5381^2 RLU
Shower/Tub, After 3.5 Days, 40 secs each hour, Before 1789, remained high due to soap scum not being removed
  ATP results, Tub Floor Center: 557^3 RLU
Shower/Tub, After 3.5 Days, 40 secs each hour, Before 4511
  ATP results, Tub Floor, left of drain: 38 RLU
Shower/Tub, After 3.5 Days, 40 secs each hour
  ATP results, Tub Floor, right of drain: 8 RLU
Shower/Tub, After 3.5 Days, 40 secs each hour, Before 6559
  ATP results, Inside Drain: 6 RLU
Shower/Tub, After 3.5 Days, 40 secs each hour, Before 6941
  ATP results, Top of Drain Plug and Drain Collar: 38 RLU
Shower/Tub, After 6.5 days (40 secs each hour for 3.5 days then 30s each hour for another 3 days), after spray adjusted to hit handle
  ATP results, Handle: 16 RLU
Shower/Tub, After 6.5 days (40 secs each hour for 3.5 days then 30s each hour for another 3 days)
  ATP results, Tub Floor, right of drain: 22 RLU
Sink, After 3.5 Days, 40 secs each hour, Before 770
  ATP results, Sink Basin, Right of Drain: 13 RLU
Sink, After 3.5 Days, 40 secs each hour, Before 1876
  ATP results, Sink Counter, left of faucet: 6 RLU
Sink, After 3.5 Days, 40 secs each hour, Before 1951
  ATP results, Inside Drain Collar Wall: 10 RLU
Sink, After 3.5 Days, 40 secs each hour, Before 4351
  ATP results, Top of Drain Plug and Drain Collar: 46 RLU
Sink, After 3.5 Days, 40 secs each hour, Before 6863
  ATP results, Drain Plug, Down Inside Drain (avg): 95 RLU
